Measured values reported in ChEMBL document CHEMBL1139396, “Novel N9-arenethenyl purines as potent dual Src/Abl tyrosine kinase inhibitors” (Bioorg Med Chem Lett, 2008).

Key:
[1] = Cytotoxicity against mouse BA/F3 cells transfected with wild-type Bcr-Abl; conditions: BaF3
K562 = assay: Cytotoxicity against human K562 cells transfected with wild-type Bcr-Abl
[2] = biological target: Proto-oncogene tyrosine-protein kinase Src (Homo sapiens, UniProt P12931); assay: Inhibition of human Src kinase by TR-FRET assay
Proto-oncogene tyrosine-protein kinase Src, sequence (P12931 2-536 limits assumed): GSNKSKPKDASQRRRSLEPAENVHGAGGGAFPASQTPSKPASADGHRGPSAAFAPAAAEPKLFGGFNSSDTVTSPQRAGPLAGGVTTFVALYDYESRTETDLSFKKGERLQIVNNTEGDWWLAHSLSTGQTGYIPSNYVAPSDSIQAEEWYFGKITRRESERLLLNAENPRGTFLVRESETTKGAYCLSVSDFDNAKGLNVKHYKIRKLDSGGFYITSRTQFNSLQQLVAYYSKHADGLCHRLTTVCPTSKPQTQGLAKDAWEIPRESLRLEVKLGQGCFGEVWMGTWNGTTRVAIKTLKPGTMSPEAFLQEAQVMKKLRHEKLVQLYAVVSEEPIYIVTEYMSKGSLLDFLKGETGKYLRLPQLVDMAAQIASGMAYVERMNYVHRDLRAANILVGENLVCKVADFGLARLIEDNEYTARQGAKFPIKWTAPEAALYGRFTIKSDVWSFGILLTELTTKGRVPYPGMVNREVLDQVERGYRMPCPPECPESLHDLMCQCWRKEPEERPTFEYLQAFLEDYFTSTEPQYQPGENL

[3] = biological target: Tyrosine-protein kinase ABL1 (Homo sapiens, UniProt P00519)
Tyrosine-protein kinase ABL1, sequence (P00519 whole entry): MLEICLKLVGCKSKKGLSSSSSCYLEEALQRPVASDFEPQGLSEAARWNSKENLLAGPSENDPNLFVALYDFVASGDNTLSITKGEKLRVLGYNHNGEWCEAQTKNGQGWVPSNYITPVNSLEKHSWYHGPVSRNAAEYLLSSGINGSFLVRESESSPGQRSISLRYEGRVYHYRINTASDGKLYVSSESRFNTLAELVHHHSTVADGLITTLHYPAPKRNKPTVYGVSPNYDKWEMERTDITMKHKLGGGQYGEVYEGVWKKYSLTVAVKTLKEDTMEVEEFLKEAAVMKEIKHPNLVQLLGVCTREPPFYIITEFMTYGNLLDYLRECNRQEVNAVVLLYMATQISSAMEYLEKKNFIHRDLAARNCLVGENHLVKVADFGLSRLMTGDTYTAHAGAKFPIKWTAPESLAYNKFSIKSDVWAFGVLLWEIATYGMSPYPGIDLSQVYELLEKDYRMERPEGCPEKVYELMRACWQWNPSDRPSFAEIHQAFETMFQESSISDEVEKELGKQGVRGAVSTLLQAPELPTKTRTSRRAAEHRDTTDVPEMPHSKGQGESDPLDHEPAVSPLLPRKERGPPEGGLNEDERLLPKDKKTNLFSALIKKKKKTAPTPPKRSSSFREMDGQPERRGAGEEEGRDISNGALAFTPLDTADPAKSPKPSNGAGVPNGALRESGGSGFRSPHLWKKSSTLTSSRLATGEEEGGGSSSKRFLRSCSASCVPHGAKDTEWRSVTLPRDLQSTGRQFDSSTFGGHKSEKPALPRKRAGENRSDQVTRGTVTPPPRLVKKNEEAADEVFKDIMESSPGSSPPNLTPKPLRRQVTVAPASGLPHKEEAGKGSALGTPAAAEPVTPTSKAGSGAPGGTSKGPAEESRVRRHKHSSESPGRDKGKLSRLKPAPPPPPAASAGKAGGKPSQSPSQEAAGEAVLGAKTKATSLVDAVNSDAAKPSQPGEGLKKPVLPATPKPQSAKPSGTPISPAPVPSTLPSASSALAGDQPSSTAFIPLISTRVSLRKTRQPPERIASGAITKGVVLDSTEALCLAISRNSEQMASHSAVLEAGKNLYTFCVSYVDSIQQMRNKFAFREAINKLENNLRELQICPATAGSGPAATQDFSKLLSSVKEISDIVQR

[4] = Volume of distribution at steady state in rat at 5 mg/kg, iv; assay type: ADME, organism-based; set-up: dose 5 mg/kg, route intravenous; conditions: in vivo, read-out: Vdss
[5] = Cmax in rat at 5 mg/kg, iv; assay type: ADME, organism-based; set-up: dose 5 mg/kg, route intravenous; conditions: in vivo
[6] = Oral bioavailability in rat at 5 mg/kg; assay type: ADME, organism-based; conditions: in vivo
[7] = Half life in rat at 5 mg/kg, po; assay type: ADME, organism-based; set-up: dose 5 mg/kg, route oral; conditions: in vivo
[8] = Cmax in rat at 5 mg/kg, po; assay type: ADME, organism-based; set-up: dose 5 mg/kg, route oral; conditions: in vivo
[9] = Half life in rat at 5 mg/kg, iv; assay type: ADME, organism-based; set-up: dose 5 mg/kg, route intravenous; conditions: in vivo
[10] = biological target: RAF proto-oncogene serine/threonine-protein kinase (Homo sapiens, UniProt P04049); assay: Inhibition of c-Raf
RAF proto-oncogene serine/threonine-protein kinase, sequence (P04049 whole entry): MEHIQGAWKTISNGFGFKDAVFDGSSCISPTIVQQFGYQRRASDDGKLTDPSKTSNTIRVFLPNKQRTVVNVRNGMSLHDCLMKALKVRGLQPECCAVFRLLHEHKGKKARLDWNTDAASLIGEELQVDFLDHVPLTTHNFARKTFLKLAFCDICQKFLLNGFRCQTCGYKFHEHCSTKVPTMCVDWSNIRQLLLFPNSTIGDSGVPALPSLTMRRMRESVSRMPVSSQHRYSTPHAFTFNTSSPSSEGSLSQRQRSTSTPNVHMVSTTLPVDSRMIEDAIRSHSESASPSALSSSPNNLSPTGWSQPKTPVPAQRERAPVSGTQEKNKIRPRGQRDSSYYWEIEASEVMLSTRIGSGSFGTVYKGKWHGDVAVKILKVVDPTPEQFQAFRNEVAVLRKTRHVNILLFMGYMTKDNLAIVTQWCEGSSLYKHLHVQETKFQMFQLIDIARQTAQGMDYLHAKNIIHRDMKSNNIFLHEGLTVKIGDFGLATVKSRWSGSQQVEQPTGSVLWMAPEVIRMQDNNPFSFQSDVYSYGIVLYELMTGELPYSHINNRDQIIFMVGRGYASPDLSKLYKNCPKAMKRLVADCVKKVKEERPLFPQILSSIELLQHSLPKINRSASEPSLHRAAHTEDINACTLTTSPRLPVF

[11] = biological target: Ephrin type-A receptor 7 (Homo sapiens) (UniProt Q15375); assay: Inhibition of EphA7
Insulin receptor = Insulin receptor (Homo sapiens, UniProt P06213); assay: Inhibition of InsR
Insulin receptor, sequence (P06213 28-758 limits assumed): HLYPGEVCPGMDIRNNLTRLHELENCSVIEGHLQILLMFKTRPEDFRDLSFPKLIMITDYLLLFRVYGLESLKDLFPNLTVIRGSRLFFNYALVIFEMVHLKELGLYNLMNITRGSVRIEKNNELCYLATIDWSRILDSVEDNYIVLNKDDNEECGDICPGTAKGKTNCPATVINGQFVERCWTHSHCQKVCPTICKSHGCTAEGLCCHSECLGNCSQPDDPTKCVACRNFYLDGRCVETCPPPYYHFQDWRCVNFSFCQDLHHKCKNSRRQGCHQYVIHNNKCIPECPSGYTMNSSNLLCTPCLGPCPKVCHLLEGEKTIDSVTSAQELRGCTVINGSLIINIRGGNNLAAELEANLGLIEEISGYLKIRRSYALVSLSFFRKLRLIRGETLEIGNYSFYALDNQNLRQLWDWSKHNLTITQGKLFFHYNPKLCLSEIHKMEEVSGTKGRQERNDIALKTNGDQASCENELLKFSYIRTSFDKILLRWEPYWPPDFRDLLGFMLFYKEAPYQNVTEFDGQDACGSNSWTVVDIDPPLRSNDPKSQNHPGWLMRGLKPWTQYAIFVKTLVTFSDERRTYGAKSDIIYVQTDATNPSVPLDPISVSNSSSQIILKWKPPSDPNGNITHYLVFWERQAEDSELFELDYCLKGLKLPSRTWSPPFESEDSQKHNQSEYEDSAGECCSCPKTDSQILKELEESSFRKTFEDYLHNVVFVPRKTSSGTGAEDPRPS
Insulin receptor, sequence (P06213 763-1382 limits assumed): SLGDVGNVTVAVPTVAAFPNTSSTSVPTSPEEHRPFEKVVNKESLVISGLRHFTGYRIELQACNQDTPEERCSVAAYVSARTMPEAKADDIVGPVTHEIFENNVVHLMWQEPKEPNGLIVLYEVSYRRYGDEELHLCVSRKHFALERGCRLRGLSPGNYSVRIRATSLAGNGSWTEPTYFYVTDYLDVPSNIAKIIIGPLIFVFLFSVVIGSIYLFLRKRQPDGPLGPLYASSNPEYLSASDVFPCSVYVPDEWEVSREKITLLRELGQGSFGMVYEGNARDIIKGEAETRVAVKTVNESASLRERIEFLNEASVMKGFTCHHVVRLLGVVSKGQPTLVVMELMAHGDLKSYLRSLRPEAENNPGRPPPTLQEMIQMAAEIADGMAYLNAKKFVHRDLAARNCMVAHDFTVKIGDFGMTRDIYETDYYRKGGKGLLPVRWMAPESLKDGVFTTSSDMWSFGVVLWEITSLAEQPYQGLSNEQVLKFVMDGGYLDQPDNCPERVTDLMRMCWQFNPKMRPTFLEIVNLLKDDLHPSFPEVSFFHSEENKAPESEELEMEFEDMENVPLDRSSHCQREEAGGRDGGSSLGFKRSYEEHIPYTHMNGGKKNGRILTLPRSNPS

[12] = biological target: Cyclin-dependent kinase 2 (Homo sapiens, UniProt P24941); assay: Inhibition of CDK2/CyclinA
Ephrin type-B receptor 1 = biological target: T1, Ephrin type-B receptor 1 (Homo sapiens, UniProt P54762); assay: Inhibition of EphB1
T1 sequence (P54762 whole entry): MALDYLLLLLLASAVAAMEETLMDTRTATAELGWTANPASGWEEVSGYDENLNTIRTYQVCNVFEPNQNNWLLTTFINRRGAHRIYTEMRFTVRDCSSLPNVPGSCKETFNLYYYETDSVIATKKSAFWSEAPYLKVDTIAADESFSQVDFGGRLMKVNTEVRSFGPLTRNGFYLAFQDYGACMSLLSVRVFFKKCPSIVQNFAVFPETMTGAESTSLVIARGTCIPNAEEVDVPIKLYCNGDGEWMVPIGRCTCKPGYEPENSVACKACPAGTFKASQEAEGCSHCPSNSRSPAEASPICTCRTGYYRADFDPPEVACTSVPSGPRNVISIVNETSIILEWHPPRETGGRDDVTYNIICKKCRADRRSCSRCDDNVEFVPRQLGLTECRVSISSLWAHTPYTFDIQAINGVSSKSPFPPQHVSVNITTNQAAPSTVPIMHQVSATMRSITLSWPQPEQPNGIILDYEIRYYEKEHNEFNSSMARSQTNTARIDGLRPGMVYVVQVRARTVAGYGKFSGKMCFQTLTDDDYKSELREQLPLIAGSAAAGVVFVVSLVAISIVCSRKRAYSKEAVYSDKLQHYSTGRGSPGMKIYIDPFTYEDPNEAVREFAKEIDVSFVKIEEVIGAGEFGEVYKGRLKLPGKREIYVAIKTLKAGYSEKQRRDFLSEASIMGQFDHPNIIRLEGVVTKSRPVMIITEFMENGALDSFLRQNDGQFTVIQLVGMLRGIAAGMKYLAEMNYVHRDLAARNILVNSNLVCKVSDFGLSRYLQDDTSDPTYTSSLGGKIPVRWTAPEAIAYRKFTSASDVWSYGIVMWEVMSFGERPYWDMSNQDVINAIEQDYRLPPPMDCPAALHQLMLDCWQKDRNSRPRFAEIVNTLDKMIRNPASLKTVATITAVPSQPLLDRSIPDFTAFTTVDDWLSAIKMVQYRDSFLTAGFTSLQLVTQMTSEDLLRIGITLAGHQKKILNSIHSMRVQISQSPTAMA

[13] = biological target: Vascular endothelial growth factor receptor 3 (Homo sapiens, UniProt P35916); assay: Inhibition of Flt4
Vascular endothelial growth factor receptor 3, sequence (P35916 whole entry): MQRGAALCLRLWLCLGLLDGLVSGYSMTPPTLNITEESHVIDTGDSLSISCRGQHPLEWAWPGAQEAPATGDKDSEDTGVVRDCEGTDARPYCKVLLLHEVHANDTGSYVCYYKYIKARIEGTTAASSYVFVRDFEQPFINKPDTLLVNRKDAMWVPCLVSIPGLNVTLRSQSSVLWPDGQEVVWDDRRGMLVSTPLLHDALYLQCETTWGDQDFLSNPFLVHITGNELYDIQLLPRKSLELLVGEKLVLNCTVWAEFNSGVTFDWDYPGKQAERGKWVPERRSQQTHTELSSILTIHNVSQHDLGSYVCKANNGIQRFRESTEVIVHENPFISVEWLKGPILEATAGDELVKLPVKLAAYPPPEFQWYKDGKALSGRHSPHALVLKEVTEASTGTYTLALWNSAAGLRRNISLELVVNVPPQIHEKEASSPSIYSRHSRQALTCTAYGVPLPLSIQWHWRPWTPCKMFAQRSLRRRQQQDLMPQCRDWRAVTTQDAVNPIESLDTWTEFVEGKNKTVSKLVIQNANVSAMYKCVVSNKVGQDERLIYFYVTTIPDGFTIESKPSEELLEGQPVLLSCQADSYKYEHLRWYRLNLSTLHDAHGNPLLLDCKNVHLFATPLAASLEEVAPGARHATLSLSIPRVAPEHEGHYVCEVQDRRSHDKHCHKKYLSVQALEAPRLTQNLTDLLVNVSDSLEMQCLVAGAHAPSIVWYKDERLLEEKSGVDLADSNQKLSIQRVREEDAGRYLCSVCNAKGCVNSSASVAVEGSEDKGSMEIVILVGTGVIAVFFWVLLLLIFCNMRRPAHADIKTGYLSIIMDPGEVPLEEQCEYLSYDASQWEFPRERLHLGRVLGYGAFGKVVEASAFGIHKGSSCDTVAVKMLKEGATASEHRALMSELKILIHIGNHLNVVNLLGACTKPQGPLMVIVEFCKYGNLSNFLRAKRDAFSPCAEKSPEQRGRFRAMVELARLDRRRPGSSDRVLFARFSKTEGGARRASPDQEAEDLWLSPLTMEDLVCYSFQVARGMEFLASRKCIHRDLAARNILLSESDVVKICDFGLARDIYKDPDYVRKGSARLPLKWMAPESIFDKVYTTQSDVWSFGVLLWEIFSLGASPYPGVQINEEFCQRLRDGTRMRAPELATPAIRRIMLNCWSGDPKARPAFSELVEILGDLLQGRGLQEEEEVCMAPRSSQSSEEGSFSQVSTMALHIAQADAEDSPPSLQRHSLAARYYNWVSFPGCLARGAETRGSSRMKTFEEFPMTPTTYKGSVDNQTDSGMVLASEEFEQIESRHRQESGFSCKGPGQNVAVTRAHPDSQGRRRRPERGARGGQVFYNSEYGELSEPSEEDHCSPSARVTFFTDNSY

[14] = biological target: Macrophage colony-stimulating factor 1 receptor (Homo sapiens, UniProt P07333)
[15] = Inhibition of Aurora kinase
[16] = biological target: Vascular endothelial growth factor receptor 1 (Homo sapiens, UniProt P17948); assay: Inhibition of Flt1
[17] = Inhibition of Abl […] mutant
[18] = biological target: Mast/stem cell growth factor receptor Kit (Homo sapiens, UniProt P10721); assay: Inhibition of Kit
[19] = biological target: Platelet-derived growth factor receptor alpha (Homo sapiens, UniProt P16234); assay: Inhibition of PDGFRalpha
Ephrin type-B receptor 4 = biological target: T2, Ephrin type-B receptor 4 (Homo sapiens, UniProt P54760); assay: Inhibition of EphB4
T2 sequence (P54760 whole entry): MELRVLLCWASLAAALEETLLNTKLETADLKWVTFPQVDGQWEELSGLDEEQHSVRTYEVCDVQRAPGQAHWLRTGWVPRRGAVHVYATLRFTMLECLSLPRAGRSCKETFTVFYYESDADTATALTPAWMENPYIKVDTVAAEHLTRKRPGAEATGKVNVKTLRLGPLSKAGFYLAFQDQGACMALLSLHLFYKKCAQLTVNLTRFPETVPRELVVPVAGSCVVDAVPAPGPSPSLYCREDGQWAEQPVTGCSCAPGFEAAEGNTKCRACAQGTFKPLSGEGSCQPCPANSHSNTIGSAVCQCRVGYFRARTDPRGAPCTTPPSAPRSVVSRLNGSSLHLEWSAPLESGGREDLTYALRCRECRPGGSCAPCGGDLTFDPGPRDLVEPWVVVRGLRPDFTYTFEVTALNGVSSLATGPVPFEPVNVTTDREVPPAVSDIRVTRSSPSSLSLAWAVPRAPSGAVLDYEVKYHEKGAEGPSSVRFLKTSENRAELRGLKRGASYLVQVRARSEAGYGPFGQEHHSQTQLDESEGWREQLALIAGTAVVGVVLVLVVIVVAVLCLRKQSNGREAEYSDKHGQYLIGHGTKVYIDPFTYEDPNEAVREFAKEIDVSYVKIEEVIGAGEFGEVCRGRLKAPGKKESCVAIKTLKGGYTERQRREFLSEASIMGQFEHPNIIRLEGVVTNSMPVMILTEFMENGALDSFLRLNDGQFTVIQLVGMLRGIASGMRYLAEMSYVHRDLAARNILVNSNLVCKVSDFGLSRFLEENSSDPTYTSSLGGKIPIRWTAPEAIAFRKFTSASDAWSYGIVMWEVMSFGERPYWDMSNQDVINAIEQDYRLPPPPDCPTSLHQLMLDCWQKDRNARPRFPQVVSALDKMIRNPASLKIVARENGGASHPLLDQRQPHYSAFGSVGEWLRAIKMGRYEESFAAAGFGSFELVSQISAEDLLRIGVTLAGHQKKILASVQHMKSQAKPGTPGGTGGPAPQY

Cc1cccc(C)c1/C=C/n1cnc2c(Nc3ccc(P(C)(C)=O)cc3)nc(N3CCCC3)nc21
IC50 [1]: 123 nM | IC50 (K562): 89.1 nM

CP(C)(=O)c1ccc(Nc2ncnc3c2ncn3/C=C/c2cccc3[nH]ncc23)cc1
IC50 [1]: 850 nM | IC50 (K562): 355 nM

Cc1cccc(C)c1/C=C/n1cnc2c(Nc3ccc(P(C)(C)=O)cc3)nc(N3CCOCC3)nc21
IC50 [2]: < 0.23 nM | IC50 [1]: 20.8 nM | IC50 [3]: 3.02 nM

Cc1cccc(Cl)c1/C=C/n1cnc2c(Nc3ccc(P(C)(C)=O)cc3)ncnc21
Vd [4]: 2.74 L/kg | IC50 [1]: 200 nM | IC50 (K562): 109 nM | Cmax [5]: 4590 ng/mL | bioavailability [6]: 17% | half-life [7]: 3.3 h | Cmax [8]: 1680 ng/mL | half-life [9]: 2.74 h

CP(C)(=O)c1ccc(Nc2ncnc3c2ncn3/C=C/c2cccc3[nH]ccc23)cc1
IC50 [1]: 1540 nM | IC50 (K562): 954 nM

CCCP(=O)(CCC)c1ccc(Nc2ncnc3c2ncn3/C=C/c2c(C)cccc2C)cc1
Vd [4]: 2.7 L/kg | IC50 [1]: 286 nM | IC50 (K562): 368 nM | Cmax [5]: 5140 ng/mL | bioavailability [6]: 0% | half-life [9]: 1.2 h

Cc1cccc(C)c1/C=C/n1cnc2c(Nc3ccc(P(C)(C)=O)cc3)nc(N(C)C)nc21
IC50 [1]: 269 nM | IC50 (K562): 217 nM

Cc1cccc(C)c1/C=C/n1cnc2c(Nc3ccc(P(C)(C)=O)cc3)nc(-n3ccnc3)nc21
IC50 [2]: < 0.46 nM | IC50 (K562): 53.7 nM | IC50 [3]: 1.63 nM

Cc1cccc(C)c1/C=C/n1cnc2c(Nc3ccc(P(C)(C)=O)cc3)nc(C(C)C)nc21
Vd [4]: 5.4 L/kg | IC50 [1]: 27.1 nM | IC50 (K562): 22.7 nM | Cmax [5]: 1220 ng/mL | bioavailability [6]: 25% | half-life [7]: 5.1 h | Cmax [8]: 478 ng/mL | half-life [9]: 7.5 h

Cc1cccc(C)c1/C=C/n1cnc2c(Nc3ccc(P(C)(C)=O)cc3)nc(C3CCCC3)nc21
IC50 (K562): 224 nM

COCCOc1nc(Nc2ccc(P(C)(C)=O)cc2)c2ncn(/C=C/c3c(C)cccc3C)c2n1
IC50 [2]: < 0.46 nM | IC50 [1]: 51.7 nM | IC50 (K562): 26.7 nM | IC50 [3]: 1.57 nM

Cc1cccc(C)c1/C=C/n1cnc2c(Nc3ccc(P(C)(C)=O)cc3)nc(C3CCN(C)CC3)nc21
IC50 [2]: < 0.46 nM | IC50 [1]: 285 nM | IC50 (K562): 28 nM | IC50 [3]: < 0.46 nM

CCCP(=O)(CCC)c1ccc(Nc2nc(C(C)C)nc3c2ncn3/C=C/c2ccccc2)cc1
IC50 (K562): > 1000 nM

CCCP(=O)(CCC)c1ccc(Nc2nc(C(C)C)nc3c2ncn3/C=C\c2ccccc2)cc1
IC50 (K562): > 1000 nM

Cc1cccc(C)c1/C=C/n1cnc2c(Nc3ccc(P(C)(C)=O)cc3)ncnc21
IC50 [2]: 8.31 nM | Vd [4]: 0.98 L/kg | IC50 [1]: 168 nM | IC50 [10]: 21 nM | IC50 (K562): 109 nM | IC50 [11]: > 1000 nM | IC50 (Insulin receptor): > 1000 nM | IC50 [12]: > 1000 nM | Cmax [5]: 4320 ng/mL | IC50 (Ephrin type-B receptor 1): 6 nM | bioavailability [6]: 20% | half-life [7]: 5 h | IC50 [13]: 151 nM | IC50 [14]: 3 nM | IC50 [15]: > 1000 nM | IC50 [16]: 591 nM | Cmax [8]: 1280 ng/mL | IC50 [3]: 3.58 nM | half-life [9]: 3.93 h | IC50 [17]: > 1000 nM | IC50 [18]: 414 nM | IC50 [19]: 221 nM | IC50 (Ephrin type-B receptor 4): 30 nM

COc1nc(Nc2ccc(P(C)(C)=O)cc2)c2ncn(/C=C/c3c(C)cccc3C)c2n1
IC50 [2]: < 0.46 nM | IC50 [1]: 32.7 nM | IC50 (K562): 52.4 nM | IC50 [3]: 1.8 nM

Cc1cccc(C)c1/C=C/n1cnc2c(Nc3ccc(P(C)(C)=O)cc3)nc(N3CCN(C)CC3)nc21
IC50 [2]: < 0.23 nM | IC50 [1]: 73.7 nM | IC50 (K562): 23.5 nM | IC50 [3]: 6.8 nM

CP(C)(=O)c1ccc(Nc2ncnc3c2ncn3/C=C/c2ccccc2Cl)cc1
IC50 [1]: 2010 nM | IC50 (K562): 1390 nM

Cc1ccc2[nH]ncc2c1/C=C/n1cnc2c(Nc3ccc(P(C)(C)=O)cc3)ncnc21
IC50 [2]: < 0.46 nM | Vd [4]: 1.9 L/kg | IC50 [1]: 37.3 nM | IC50 (K562): 10.5 nM | Cmax [5]: 7080 ng/mL | bioavailability [6]: 0% | Cmax [8]: 22 ng/mL | IC50 [3]: < 0.46 nM | half-life [9]: 1.2 h

Cc1cccc(C)c1/C=C/n1cnc2c(Nc3ccc(P(C)(C)=O)cc3)nc(OC(C)C)nc21
IC50 [2]: < 0.46 nM | IC50 [1]: 34.8 nM | IC50 (K562): 40.6 nM | IC50 [3]: 7.32 nM

Cc1cccc(C)c1/C=C/n1cnc2c(Nc3ccc(P(C)(C)=O)cc3)nc(CCC#N)nc21
IC50 [2]: < 0.46 nM | IC50 [1]: 38.6 nM | IC50 (K562): 15.8 nM | IC50 [3]: < 0.46 nM

Cc1cccc(C)c1/C=C/n1cnc2c(Nc3ccc(P(C)(C)=O)cc3)nc(Oc3cccnc3)nc21
IC50 [2]: < 0.46 nM | IC50 [1]: 35.1 nM | IC50 (K562): 8.5 nM | IC50 [3]: 0.5 nM

CCCP(=O)(CCC)c1ccc(Nc2nc(C(C)C)nc3c2ncn3/C=C\c2c(C)cccc2C)cc1
IC50 (K562): 964 nM

CCCP(=O)(CCC)c1ccc(Nc2nc(C(C)C)nc3c2ncn3/C=C/c2c(C)cccc2C)cc1
IC50 [1]: 122 nM | IC50 (K562): 115 nM
